Experimental data: patent US12012401B2, “Process for preparing N-(5-(3-(7-(3-fluorophenyl)-3H-imidazo[4,5-c]pyridin-2-yl)-1H-indazol-5-yl)pyridin-3-yl)-3-methylbutanamide” (BioSplice Therapeutics, Inc., priority 2016, dated 2024)

Key:
Type in all cases: physicochemical
[1] = Dynamic vapor sorption (DVS) scan; conditions: for water absorption (DVS scan): at 90% RH
From the text: The purity of the Form 13 sample was 98.8%; the KF of an undried Form 13 sample was 35.7%.

[2] = Form conversion on drying (XRD); conditions: for XRD after drying at 50° C. under vacuum: after air exposure overnight, dried at 50° C. under vacuum
Method: The Form 1 solid was dried at 75° C. under vacuum overnight, and XRD, DSC, and TGA scans were performed. […] However, the DSC scans indicated the absence of endotherm. The loss of the early peak on the DSC scan had no effect on the XRD trace, showing that the endotherm between 50-100° C. on DSC scan was due to the free solvent. The purity of the Form 13 sample was 98.8%; the KF of an undried Form 13 sample was 35.7%. […] Solvates 1 and 2 solids were exposed to air overnight, and then analyzed by XRD. After the analysis, the solids were dried at 50° C. under vacuum, and then analyzed by XRD again.

[3] = Heating in DSC chamber, then XRD scan (form conversion)
Method: The Form 1 solid was heated in a DSC chamber to 305° C. (past the endotherm/exotherm around 280° C.), and then scanned by XRD. […] Thus, the endotherm/exotherm around 280° C. might be due to melting/crystallization events.
The Form 2 solid was heated in a DSC machine to 90° C. (past the endotherm between 50-100° C.); to 270° C. (past the endotherm/exotherm around 240° C.); and finally to 330° C. (past the exotherm […]). The residual solid was analyzed by XRD. […] The endotherm between 50-100° C. might be free solvent or hydrate. […] Thus, the exotherm around 290° C. was a re-crystallization event. According to an XRD and DSC overlay, the behavior of Form 2* was similar to Form 2.
Form 13 solid was heated in a DSC chamber to 170° C. (past the endotherm between 50-100° C.), and then scanned by XRD. […] It can be concluded that the endotherm between 50-100° C. is due to bonded water.
Form 13 solid was heated in a DSC chamber to 330° C. (past the endotherm/exotherm around 300° C.), and then scanned by XRD. […] It can be concluded that the endotherm/exotherm is due to melting/crystallization events.

[4] = Competitive reslurry experiments between polymorph forms (thermodynamic stability); conditions: 3-5 days
Method: In order to find out the thermodynamic stability between the different forms, several competitive reslurry experiments were carried out. Form 1, Form 2, Form 2*, Form 3, Form 4, Form 4*, Form 4**, Form 5, Form 7, Form 8, Form 9, Form 10, Form 11, Form 11*, and Form 13 (10 mg for each) were mixed and slurried in 2 mL of solvent at both RT and 50° C. The solids were slurried for 3-5 days and then analyzed by XRD.

[5] = Competitive reslurry of Form 1, Form 9 and Form 13 (stability of Form 13 vs Form 9); conditions: toluene, IPAc, n-butyl acetate; 3 days at RT and 50° C.
Method: In order to find out the thermodynamic stability between Form 13 and Form 9, several competitive reslurry experiments were carried out. 15 mg of Form 1, Form 9 and Form 13 solids were mixed in 1 mL of toluene, IPAc, and n-butyl acetate, and slurried for 3 days at RT and 50° C.
The residual solid was analyzed by XRD.

[6] = Reslurry experiments in various solvents (polymorph screen)
Method: Reslurry experiments in various solvents were performed. Approximately 30-80 mg of the starting solid (a non-stoichiometric hydrate of Form 1 having between 1% and about 20% by weight water) was slurried in 39 different solvents (pure and binary solvents; the ratio of organic solvent/water (V/V) was 95%/5%) at RT and 50° C. for 5 days. Three solvates, one non-stoichiometric hydrate, and eleven non-solvated forms were identified. […] XRD of both wet and dry samples were scanned (FIG. 12A (dry sample)).

[7] = Form conversion on exposure to relative humidity / air (XRD); conditions: for XRD after exposure to air overnight: exposed to air overnight
Method: The hydrate lost its water below 30% RH.
Solvates 1 and 2 solids were exposed to air overnight, and then analyzed by XRD. After the analysis, the solids were dried at 50° C. under vacuum, and then analyzed by XRD again.

[8] = Solubility of the starting solid by the gravimetric method; conditions: at RT and at 50° C. in all solvents tested except DMF and DMSO
[9] = Acetontrile/water (5% water), 50° C.
[10] = Heptane/water (5% water), 50° C.
[11] = Toluene/water (5% water), 50° C.
[12] = n-Butanol/water (5% water), 50° C.
[13] = n-Butyl acetate/water (5% water), 50° C.
[14] = n-Butyl acetate/water (5% water), RT
[15] = Acetontrile/water (5% water), RT

## CC(C)CC(=O)Nc1cncc(-c2ccc3[nH]nc(-c4nc5c(-c6cccc(F)c6)cncc5[nH]4)c3c2)c1 [Form 13, N-(5-(3-(7-(3-fluorophenyl)-3H-imidazo[4,5-c]pyridin-2-yl)-1H-indazol-5-yl)pyridin-3-yl)-3-methylbutanamide]
[1]
  water absorption (DVS scan): 17%
[2]; upon drying
  form change upon drying: converted to Form 1
[3]; heated in a DSC chamber to 170° C.
  form after heating (XRD): converted to Form 1
[3]; heated to 330° C.
  form after heating (XRD): converted to Form 9
[4]; water at RT and 50° C.
  thermodynamic stability in competitive reslurry: most stable
[5]
  thermodynamic stability between Form 13 and Form 9: difficult to tell which one was more stable
[6]; [9]
  Form; Dry: Form 13
  Form; Wet: Form 13
[6]; DCM, 50° C.
  Form; Dry: Form 13
  Form; Wet: Form 13
[6]; DCM/water (5% water), 50° C.
  Form; Dry: Form 1
  Form; Wet: Form 13
[6]; DCM/water (5% water), RT
  Form; Dry: Form 1
  Form; Wet: Form 13
[6]; Heptane, 50° C.
  Form; Dry: Form 13
  Form; Wet: Form 13
[6]; [10]
  Form; Dry: Form 1
  Form; Wet: Form 13
[6]; Heptane/water (5% water), RT
  Form; Dry: Form 12
  Form; Wet: Form 13
[6]; IPAc/water (5% water), 50° C.
  Form; Dry: Form 13
  Form; Wet: Form 13
[6]; MA/water (5% water), RT
  Form; Dry: Form 1
  Form; Wet: Form 13
[6]; MIBK/water (5% water), 50° C.
  Form; Dry: Form 1
  Form; Wet: Form 13
[6]; MeOH, RT
  Form; Dry: Form 1
  Form; Wet: Form 13
[6]; MeOH/water (5% water), 50° C.
  Form; Dry: Form 13
  Form; Wet: Form 13
[6]; MtBE/water (5% water), 50° C.
  Form; Dry: Form 13
  Form; Wet: Form 13
[6]; [11]
  Form; Dry: Form 13
  Form; Wet: Form 13
[6]; Toluene/water (5% water), RT
  Form; Dry: Form 1
  Form; Wet: Form 13
[6]; [12]
  Form; Dry: Form 1
  Form; Wet: Form 13
[6]; n-Butanol/water (5% water), RT
  Form; Dry: Form 13
  Form; Wet: Form 13
[6]; [13]
  Form; Dry: Form 1
  Form; Wet: Form 13
[6]; [14]
  Form; Dry: Form 12
  Form; Wet: Form 13
[6]; water, 50° C.
  Form; Dry: Form 13
  Form; Wet: Form 13
[6]; water, RT
  Form; Dry: Form 1
  Form; Wet: Form 13

## CC(C)CC(=O)Nc1cncc(-c2ccc3[nH]nc(-c4nc5c(-c6cccc(F)c6)cncc5[nH]4)c3c2)c1 [Form 1, N-(5-(3-(7-(3-fluorophenyl)-3H-imidazo[4,5-c]pyridin-2-yl)-1H-indazol-5-yl)pyridin-3-yl)-3-methylbutanamide]
[1]
  water absorption (DVS scan): 17%
[7]; exposed to air
  form change when exposed to air: converted to a non-stoichiometric hydrate of Form 1
[2]; dried at 75° C. under vacuum overnight
  change of XRD scan after drying: no change
[3]; heated in a DSC chamber to 305° C.
  form after heating (XRD): converted to Form 9

## CC(C)CC(=O)Nc1cncc(-c2ccc3[nH]nc(-c4nc5c(-c6cccc(F)c6)cncc5[nH]4)c3c2)c1 [Solvate 1, N-(5-(3-(7-(3-fluorophenyl)-3H-imidazo[4,5-c]pyridin-2-yl)-1H-indazol-5-yl)pyridin-3-yl)-3-methylbutanamide]
[7]
  XRD after exposure to air overnight: converted to low crystallinity
[2]
  XRD after drying at 50° C. under vacuum: still a low crystallinity solid

## CC(C)CC(=O)Nc1cncc(-c2ccc3[nH]nc(-c4nc5c(-c6cccc(F)c6)cncc5[nH]4)c3c2)c1 [Form 4, N-(5-(3-(7-(3-fluorophenyl)-3H-imidazo[4,5-c]pyridin-2-yl)-1H-indazol-5-yl)pyridin-3-yl)-3-methylbutanamide]
[4]; EA at RT and 50° C.
  thermodynamic stability in competitive reslurry: most stable

## CC(C)CC(=O)Nc1cncc(-c2ccc3[nH]nc(-c4nc5c(-c6cccc(F)c6)cncc5[nH]4)c3c2)c1 [Form 9, N-(5-(3-(7-(3-fluorophenyl)-3H-imidazo[4,5-c]pyridin-2-yl)-1H-indazol-5-yl)pyridin-3-yl)-3-methylbutanamide]
[1]; DVS scan
  form before and after the DVS scan: did not change its form
[1]
  water absorption (DVS scan): 0.8%
[5]
  thermodynamic stability between Form 13 and Form 9: difficult to tell which one was more stable

## CC(C)CC(=O)Nc1cncc(-c2ccc3[nH]nc(-c4nc5c(-c6cccc(F)c6)cncc5[nH]4)c3c2)c1 [Form 12, N-(5-(3-(7-(3-fluorophenyl)-3H-imidazo[4,5-c]pyridin-2-yl)-1H-indazol-5-yl)pyridin-3-yl)-3-methylbutanamide]
[6]; [15]
  Form; Dry: Form 1
  Form; Wet: Form 12
[6]; EA/water (5% water), RT
  Form; Dry: Form 1
  Form; Wet: Form 12
[6]; Heptane/water (5% water), RT
  Form; Dry: Form 12
  Form; Wet: Form 13
[6]; IPAc/water (5% water), RT
  Form; Dry: Form 1
  Form; Wet: Form 12
[6]; MA/water (5% water), 50° C.
  Form; Dry: Form 4
  Form; Wet: Form 12
[6]; MIBK/water (5% water), RT
  Form; Dry: Form 1
  Form; Wet: Form 12
[6]; MeOH/water (5% water), RT
  Form; Dry: Form 1
  Form; Wet: Form 12
[6]; MtBE/water (5% water), RT
  Form; Dry: Form 1
  Form; Wet: Form 12
[6]; [14]
  Form; Dry: Form 12
  Form; Wet: Form 13

## CC(C)CC(=O)Nc1cncc(-c2ccc3[nH]nc(-c4nc5c(-c6cccc(F)c6)cncc5[nH]4)c3c2)c1 [Solvate 2, N-(5-(3-(7-(3-fluorophenyl)-3H-imidazo[4,5-c]pyridin-2-yl)-1H-indazol-5-yl)pyridin-3-yl)-3-methylbutanamide]
[7]
  XRD after exposure to air overnight: changed a little
[2]
  XRD after drying at 50° C. under vacuum: remained the same

## CC(C)CC(=O)Nc1cncc(-c2ccc3[nH]nc(-c4nc5c(-c6cccc(F)c6)cncc5[nH]4)c3c2)c1 [starting solid, N-(5-(3-(7-(3-fluorophenyl)-3H-imidazo[4,5-c]pyridin-2-yl)-1H-indazol-5-yl)pyridin-3-yl)-3-methylbutanamide]
[8]
  Solubility (in words): low solubility

## CC(C)CC(=O)Nc1cncc(-c2ccc3[nH]nc(-c4nc5c(-c6cccc(F)c6)cncc5[nH]4)c3c2)c1 [Form 2, N-(5-(3-(7-(3-fluorophenyl)-3H-imidazo[4,5-c]pyridin-2-yl)-1H-indazol-5-yl)pyridin-3-yl)-3-methylbutanamide]
[3]; heated in a DSC machine to 90° C.
  form after heating (XRD): did not change
[3]; heated in a DSC machine to 270° C.
  form after heating (XRD): converted to low crystalline solids
[3]; heated to 330° C.
  form after heating (XRD): converted to Form 9
[4]; MeOH, EtOH, and acetone system at both RT and 50° C.
  thermodynamic stability in competitive reslurry: most stable form

## CC(C)CC(=O)Nc1cncc(-c2ccc3[nH]nc(-c4nc5c(-c6cccc(F)c6)cncc5[nH]4)c3c2)c1 [non-stoichiometric hydrate of Form 1, N-(5-(3-(7-(3-fluorophenyl)-3H-imidazo[4,5-c]pyridin-2-yl)-1H-indazol-5-yl)pyridin-3-yl)-3-methylbutanamide]
[7]; RH
  RH below which the hydrate lost its water: below 30 % RH
